Patent US9302999B2, “Substituted triazoles as herbicides” (E. I. DU PONT DE NEMOURS AND COMPANY, priority 2012, dated 2016)

Columns and labels:
Format in all cases: in vivo
Settings in all cases: Preemergence, scale 0 to 100
[1] = tested on: dayflower, (VA) (Virginia dayflower, Commelina virginica); experiment: Test E pre-/postemergence: dayflower, (VA)
From the text: (§1) Seeds of plant species selected from corn (Zea mays), soybean (Glycine max), velvetleaf (Abutilon theophrasti), lambsquarters (Chenopodium album), poinsettia, wild (wild poinsettia, Euphorbia heterophylla), pigweed, palmer (palmer pigweed, Amaranthus palmeri), waterhemp (common waterhemp, Amaranthus rudis), smartweed (ladysthumb smartweed, Polygonum persicaria), surinam grass (Brachiaria decumbens), crabgrass, large (large crabgrass, Digitaria sanguinalis), crabgrass, Brazil (Brazilian crabgrass, Digitaria horizontalis), panicum, fall (fall panicum, Panicum dichotomiflorum), foxtail, giant (giant foxtail, Setaria faberii), foxtail, green (green foxtail, Setaria viridis), goosegrass (Eleusine indica), johnsongrass (Sorghum halepense), ragweed (common ragweed, Ambrosia elation), barnyardgrass (Echinochloa crus-galli), sandbur (southern sandbur, Cenchrus echinatus), arrowleaf sida (Sida rhombifolia), ryegrass, Italian (Italian ryegrass, Lolium multiflorum), dayflower, (VA) (Virginia dayflower, Commelina virginica), field bindweed (Convolvulus arvensis), cocklebur (common cocklebur, Xanthium strumarium), morningglory (Ipomoea coccinea), nightshade (eastern black nightshade, Solanum ptycanthum), kochia (Kochia scoparia), nutsedge, yellow (yellow nutsedge, Cyperus esculentus) and beggarticks (hairy beggarticks, Bidens pilosa) were planted into a silt loam soil and treated preemergence with test chemicals formulated in a non-phytotoxic solvent mixture which included a surfactant. At the same time, plants selected from these crop and weed species were planted in pots containing a growing medium comprising spaghnum peat moss, vermiculite, wetting agent and starter nutrients and treated with postemergence applications of some of the test chemicals formulated in the same manner. Plants ranged in height from 2 to 18 cm for postemergence treatments (1- to 4-leaf stage).
(§2) Treated plants and controls were maintained in a greenhouse for 14 to 21 days, after which time all species were compared to controls and visually evaluated. Plant response ratings, summarized in Table E, are based on a scale of 0 to 100 where 0 is no effect and 100 is complete control. A dash (-) response means no test result.

[2] = tested on: ryegrass, Italian (Italian ryegrass, Lolium multiflorum); experiment: Test E pre-/postemergence: ryegrass, Italian
From the text: as §1, §2

[3] = tested on: crabgrass, large (large crabgrass, Digitaria sanguinalis); experiment: Test E pre-/postemergence: crabgrass, large
From the text: as §1, §2

[4] = tested on: goosegrass (Eleusine indica); experiment: Test E pre-/postemergence: goosegrass
From the text: as §1, §2

[5] = tested on: pigweed, palmer (palmer pigweed, Amaranthus palmeri); experiment: Test E pre-/postemergence: pigweed, palmer
From the text: as §1, §2

[6] = tested on: waterhemp (common waterhemp, Amaranthus rudis); experiment: Test E pre-/postemergence: waterhemp
From the text: as §1, §2

[7] = tested on: nightshade (eastern black nightshade, Solanum ptycanthum); experiment: Test E pre-/postemergence: nightshade
From the text: as §1, §2

soybean (Glycine max) = experiment: Test E pre-/postemergence: soybean
From the text: as §1, §2

[8] = tested on: panicum, fall (fall panicum, Panicum dichotomiflorum); experiment: Test E pre-/postemergence: panicum, fall
From the text: as §1, §2

[9] = tested on: foxtail, green (green foxtail, Setaria viridis); experiment: Test E pre-/postemergence: foxtail, green
From the text: as §1, §2

[10] = tested on: crabgrass, Brazil (Brazilian crabgrass, Digitaria horizontalis); experiment: Test E pre-/postemergence: crabgrass, Brazil
From the text: as §1, §2

[11] = tested on: poinsettia, wild (wild poinsettia, Euphorbia heterophylla); experiment: Test E pre-/postemergence: poinsettia, wild
From the text: as §1, §2

[12] = tested on: field bindweed (Convolvulus arvensis); experiment: Test E pre-/postemergence: field bindweed
From the text: as §1, §2

FC(F)(F)COc1nn(-c2ccc(C(F)(F)F)cc2)nc1Cc1ccnc(C(F)(F)F)c1 [Compound 14, 4-[[5-(2,2,2-trifluoroethoxy)-2-[4-(trifluoromethyl)phenyl]-2H-1,2,3-triazol-4-yl]methyl]-2-(trifluoromethyl)pyridine]
5: Plant response rating: Field Bindweed ([12]; 16 g ai/ha)
70: Plant response rating: Dayflower, VA ([1]; 125 g ai/ha) | Plant response rating: Foxtail, Green ([9]; 125 g ai/ha)
100: Plant response rating: Ryegrass, Italian ([2]; 250 g ai/ha) | Plant response rating: Crabgrass, Large ([3]; 125 g ai/ha) | Plant response rating: Crabgrass, Large ([3]; 250 g ai/ha) | Plant response rating: Goosegrass ([4]; 31 g ai/ha) | Plant response rating: Goosegrass ([4]; 62 g ai/ha) | Plant response rating: Goosegrass ([4]; 125 g ai/ha) | Plant response rating: Goosegrass ([4]; 250 g ai/ha) | Plant response rating: Pigweed, Palmer ([5]; 31 g ai/ha) | Plant response rating: Pigweed, Palmer ([5]; 62 g ai/ha) | Plant response rating: Pigweed, Palmer ([5]; 125 g ai/ha) | Plant response rating: Pigweed, Palmer ([5]; 250 g ai/ha) | Plant response rating: Waterhemp ([6]; 62 g ai/ha) | Plant response rating: Waterhemp ([6]; 125 g ai/ha) | Plant response rating: Waterhemp ([6]; 250 g ai/ha) | Plant response rating: Panicum, Fall ([8]; 62 g ai/ha) | Plant response rating: Panicum, Fall ([8]; 125 g ai/ha) | Plant response rating: Panicum, Fall ([8]; 250 g ai/ha) | Plant response rating: Foxtail, Green ([9]; 250 g ai/ha) | Plant response rating: Crabgrass, Brazil ([10]; 62 g ai/ha) | Plant response rating: Crabgrass, Brazil ([10]; 125 g ai/ha) | Plant response rating: Crabgrass, Brazil ([10]; 250 g ai/ha)
35: Plant response rating: Nightshade ([7]; 16 g ai/ha) | Plant response rating: Soybean (soybean (Glycine max); 250 g ai/ha) | Plant response rating: Foxtail, Green ([9]; 31 g ai/ha)
98: Plant response rating: Waterhemp ([6]; 31 g ai/ha) | Plant response rating: Nightshade ([7]; 62 g ai/ha) | Plant response rating: Nightshade ([7]; 125 g ai/ha) | Plant response rating: Nightshade ([7]; 250 g ai/ha)
25: Plant response rating: Soybean (soybean (Glycine max); 62 g ai/ha) | Plant response rating: Foxtail, Green ([9]; 16 g ai/ha) | Plant response rating: Poinsettia, Wild ([11]; 31 g ai/ha)
20: Plant response rating: Field Bindweed ([12]; 31 g ai/ha)
50: Plant response rating: Dayflower, VA ([1]; 31 g ai/ha) | Plant response rating: Foxtail, Green ([9]; 62 g ai/ha) | Plant response rating: Poinsettia, Wild ([11]; 62 g ai/ha)
15: Plant response rating: Poinsettia, Wild ([11]; 16 g ai/ha)
0: Plant response rating: Ryegrass, Italian ([2]; 16 g ai/ha) | Plant response rating: Soybean (soybean (Glycine max); 16 g ai/ha)
90: Plant response rating: Waterhemp ([6]; 16 g ai/ha)
75: Plant response rating: Dayflower, VA ([1]; 250 g ai/ha) | Plant response rating: Crabgrass, Large ([3]; 31 g ai/ha) | Plant response rating: Pigweed, Palmer ([5]; 16 g ai/ha) | Plant response rating: Crabgrass, Brazil ([10]; 31 g ai/ha) | Plant response rating: Poinsettia, Wild ([11]; 250 g ai/ha) | Plant response rating: Field Bindweed ([12]; 250 g ai/ha)
10: Plant response rating: Dayflower, VA ([1]; 16 g ai/ha) | Plant response rating: Soybean (soybean (Glycine max); 31 g ai/ha)
85: Plant response rating: Ryegrass, Italian ([2]; 62 g ai/ha)
60: Plant response rating: Dayflower, VA ([1]; 62 g ai/ha) | Plant response rating: Nightshade ([7]; 31 g ai/ha) | Plant response rating: Crabgrass, Brazil ([10]; 16 g ai/ha)
65: Plant response rating: Crabgrass, Large ([3]; 16 g ai/ha) | Plant response rating: Goosegrass ([4]; 16 g ai/ha) | Plant response rating: Panicum, Fall ([8]; 16 g ai/ha) | Plant response rating: Poinsettia, Wild ([11]; 125 g ai/ha) | Plant response rating: Field Bindweed ([12]; 62 g ai/ha) | Plant response rating: Field Bindweed ([12]; 125 g ai/ha)
95: Plant response rating: Ryegrass, Italian ([2]; 125 g ai/ha) | Plant response rating: Crabgrass, Large ([3]; 62 g ai/ha)
80: Plant response rating: Panicum, Fall ([8]; 31 g ai/ha)
40: Plant response rating: Ryegrass, Italian ([2]; 31 g ai/ha)

COc1nn(-c2ccc(C(F)(F)F)cc2)nc1Cc1ccnc(C(F)(F)F)c1 [Compound 15, 4-[[5-methoxy-2-[4-(trifluoromethyl)phenyl]-2H-1,2,3-triazol-4-yl]methyl]-2-(trifluoromethyl)pyridine]
98: Plant response rating: Waterhemp ([6]; 16 g ai/ha) | Plant response rating: Nightshade ([7]; 62 g ai/ha) | Plant response rating: Nightshade ([7]; 125 g ai/ha) | Plant response rating: Panicum, Fall ([8]; 16 g ai/ha) | Plant response rating: Panicum, Fall ([8]; 31 g ai/ha) | Plant response rating: Crabgrass, Brazil ([10]; 31 g ai/ha)
0: Plant response rating: Soybean (soybean (Glycine max); 16 g ai/ha) | Plant response rating: Soybean (soybean (Glycine max); 31 g ai/ha)
20: Plant response rating: Ryegrass, Italian ([2]; 16 g ai/ha) | Plant response rating: Soybean (soybean (Glycine max); 62 g ai/ha) | Plant response rating: Foxtail, Green ([9]; 16 g ai/ha)
65: Plant response rating: Poinsettia, Wild ([11]; 62 g ai/ha)
15: Plant response rating: Crabgrass, Large ([3]; 16 g ai/ha)
5: Plant response rating: Dayflower, VA ([1]; 16 g ai/ha) | Plant response rating: Nightshade ([7]; 16 g ai/ha) | Plant response rating: Field Bindweed ([12]; 16 g ai/ha) | Plant response rating: Field Bindweed ([12]; 31 g ai/ha)
40: Plant response rating: Field Bindweed ([12]; 62 g ai/ha)
60: Plant response rating: Dayflower, VA ([1]; 125 g ai/ha) | Plant response rating: Crabgrass, Brazil ([10]; 16 g ai/ha) | Plant response rating: Field Bindweed ([12]; 125 g ai/ha)
100: Plant response rating: Ryegrass, Italian ([2]; 125 g ai/ha) | Plant response rating: Ryegrass, Italian ([2]; 250 g ai/ha) | Plant response rating: Crabgrass, Large ([3]; 62 g ai/ha) | Plant response rating: Crabgrass, Large ([3]; 125 g ai/ha) | Plant response rating: Crabgrass, Large ([3]; 250 g ai/ha) | Plant response rating: Goosegrass ([4]; 31 g ai/ha) | Plant response rating: Goosegrass ([4]; 62 g ai/ha) | Plant response rating: Goosegrass ([4]; 125 g ai/ha) | Plant response rating: Goosegrass ([4]; 250 g ai/ha) | Plant response rating: Pigweed, Palmer ([5]; 16 g ai/ha) | Plant response rating: Pigweed, Palmer ([5]; 31 g ai/ha) | Plant response rating: Pigweed, Palmer ([5]; 62 g ai/ha) | Plant response rating: Pigweed, Palmer ([5]; 125 g ai/ha) | Plant response rating: Pigweed, Palmer ([5]; 250 g ai/ha) | Plant response rating: Waterhemp ([6]; 31 g ai/ha) | Plant response rating: Waterhemp ([6]; 62 g ai/ha) | Plant response rating: Waterhemp ([6]; 125 g ai/ha) | Plant response rating: Waterhemp ([6]; 250 g ai/ha) | Plant response rating: Nightshade ([7]; 250 g ai/ha) | Plant response rating: Panicum, Fall ([8]; 62 g ai/ha) | Plant response rating: Panicum, Fall ([8]; 125 g ai/ha) | Plant response rating: Panicum, Fall ([8]; 250 g ai/ha) | Plant response rating: Foxtail, Green ([9]; 125 g ai/ha) | Plant response rating: Foxtail, Green ([9]; 250 g ai/ha) | Plant response rating: Crabgrass, Brazil ([10]; 62 g ai/ha) | Plant response rating: Crabgrass, Brazil ([10]; 125 g ai/ha) | Plant response rating: Crabgrass, Brazil ([10]; 250 g ai/ha)
25: Plant response rating: Dayflower, VA ([1]; 62 g ai/ha)
10: Plant response rating: Dayflower, VA ([1]; 31 g ai/ha)
80: Plant response rating: Ryegrass, Italian ([2]; 62 g ai/ha) | Plant response rating: Poinsettia, Wild ([11]; 250 g ai/ha)
90: Plant response rating: Crabgrass, Large ([3]; 31 g ai/ha) | Plant response rating: Foxtail, Green ([9]; 62 g ai/ha)
30: Plant response rating: Poinsettia, Wild ([11]; 16 g ai/ha) | Plant response rating: Poinsettia, Wild ([11]; 31 g ai/ha)
35: Plant response rating: Nightshade ([7]; 31 g ai/ha) | Plant response rating: Soybean (soybean (Glycine max); 125 g ai/ha) | Plant response rating: Soybean (soybean (Glycine max); 250 g ai/ha)
95: Plant response rating: Dayflower, VA ([1]; 250 g ai/ha) | Plant response rating: Field Bindweed ([12]; 250 g ai/ha)
75: Plant response rating: Ryegrass, Italian ([2]; 31 g ai/ha) | Plant response rating: Goosegrass ([4]; 16 g ai/ha) | Plant response rating: Poinsettia, Wild ([11]; 125 g ai/ha)
